In ChEMBL document CHEMBL2440076, “New triarylpyrazoles as broad-spectrum anticancer agents: design, synthesis, and biological evaluation” (Eur J Med Chem, 2013):

What was measured:
[1] = system: NCI-H460; experiment: Growth inhibition of human NCI-H460 cells assessed as cell growth at 10 uM after 48 hrs by sulforhodamine B assay; assay type: functional; conditions: NCI-H460, 48 h, read-out: Activity
[2] = system: TK-10; experiment: Growth inhibition of human TK10 cells assessed as cell growth at 10 uM after 48 hrs by sulforhodamine B assay; assay type: functional; conditions: TK-10, 48 h, read-out: Activity
[3] = Growth inhibition of human HCC2998 cells assessed as cell growth at 10 uM after 48 hrs by sulforhodamine B assay; assay type: functional; conditions: HCC 2998, 48 h, read-out: Activity
[4] = system: SN12C; experiment: Growth inhibition of human SN12C cells after 48 hrs by sulforhodamine B assay; assay type: functional
[5] = system: OVCAR-3; experiment: Growth inhibition of human OVCAR3 cells after 48 hrs by sulforhodamine B assay; assay type: functional, cell-based; conditions: OVCAR-3, 48 h
[6] = system: SK-MEL-2; experiment: Growth inhibition of human SK-MEL-2 cells after 48 hrs by sulforhodamine B assay; assay type: functional; conditions: SK-MEL-2, 48 h
[7] = system: K562; experiment: Growth inhibition of human K562 cells after 48 hrs by sulforhodamine B assay; assay type: functional; conditions: K562, 48 h
[8] = system: A549; experiment: Growth inhibition of human A549/ATCC cells assessed as cell growth at 10 uM after 48 hrs by sulforhodamine B assay; assay type: functional; conditions: A549, 48 h, read-out: Activity
[9] = system: HCT-15; experiment: Growth inhibition of human HCT15 cells assessed as cell growth at 10 uM after 48 hrs by sulforhodamine B assay; assay type: functional; conditions: HCT-15, 48 h, read-out: Activity
[10] = system: SNB-19; experiment: Growth inhibition of human SNB19 cells assessed as cell growth at 10 uM after 48 hrs by sulforhodamine B assay; assay type: functional; conditions: SNB-19, 48 h, read-out: Activity
[11] = system: HL-60(TB); experiment: Growth inhibition of human HL-60(TB) cells after 48 hrs by sulforhodamine B assay; assay type: functional; conditions: HL-60, 48 h
[12] = system: T47D; experiment: Growth inhibition of human T47D cells after 48 hrs by sulforhodamine B assay; assay type: functional
[13] = system: SNB-75; experiment: Growth inhibition of human SNB75 cells after 48 hrs by sulforhodamine B assay; assay type: functional; conditions: SNB-75, 48 h
[14] = system: NCI-H226; experiment: Growth inhibition of human NCI-H226 cells after 48 hrs by sulforhodamine B assay; assay type: functional; conditions: NCI-H226, 48 h
[15] = system: DU-145; experiment: Growth inhibition of human DU145 cells after 48 hrs by sulforhodamine B assay; assay type: functional; conditions: DU-145, 48 h
[16] = system: CCRF-CEM; experiment: Growth inhibition of human CCRF-CEM cells assessed as cell growth at 10 uM after 48 hrs by sulforhodamine B assay; assay type: functional; conditions: read-out: Activity
[17] = system: MDA-MB-468; experiment: Growth inhibition of human MDA-MB-468 cells after 48 hrs by sulforhodamine B assay; assay type: functional, cell-based; conditions: MDA-MB-468, 48 h
[18] = system: NCI-H322M; experiment: Growth inhibition of human NCI-H322M cells after 48 hrs by sulforhodamine B assay; assay type: functional
[19] = system: K562; experiment: Growth inhibition of human K562 cells assessed as cell growth at 10 uM after 48 hrs by sulforhodamine B assay; assay type: functional; conditions: K562, 48 h, read-out: Activity
[20] = system: LOX IMVI; experiment: Growth inhibition of human LOXIMVI cells after 48 hrs by sulforhodamine B assay; assay type: functional
[21] = system: MDA-MB-231; experiment: Growth inhibition of human MDA-MB-231 cells assessed as cell growth at 10 uM after 48 hrs by sulforhodamine B assay; assay type: functional; conditions: MDA-MB-231, 48 h, read-out: Activity
[22] = system: HOP-92; experiment: Growth inhibition of human HOP92 cells after 48 hrs by sulforhodamine B assay; assay type: functional, cell-based; conditions: HOP-92, 48 h
[23] = system: A549; experiment: Growth inhibition of human A549/ATCC cells after 48 hrs by sulforhodamine B assay; assay type: functional; conditions: A549, 48 h
[24] = system: RXF 393; experiment: Growth inhibition of human RXF393 cells assessed as cell growth at 10 uM after 48 hrs by sulforhodamine B assay; assay type: functional; conditions: RXF 393, 48 h, read-out: Activity
[25] = system: KM12; experiment: Growth inhibition of human KM12 cells after 48 hrs by sulforhodamine B assay; assay type: functional, cell-based; conditions: KM12, 48 h
[26] = Growth inhibition of human Hs 578T cells after 48 hrs by sulforhodamine B assay; assay type: functional
[27] = system: Malme-3M; experiment: Growth inhibition of human MALME-3M cells assessed as cell growth at 10 uM after 48 hrs by sulforhodamine B assay; assay type: functional; conditions: read-out: Activity
[28] = system: HOP-92; experiment: Growth inhibition of human HOP92 cells assessed as cell growth at 10 uM after 48 hrs by sulforhodamine B assay; assay type: functional; conditions: HOP-92, 48 h, read-out: Activity
[29] = system: MDA-MB-468; experiment: Growth inhibition of human MDA-MB-468 cells assessed as cell growth at 10 uM after 48 hrs by sulforhodamine B assay; assay type: functional; conditions: MDA-MB-468, 48 h, read-out: Activity
[30] = system: MCF7; experiment: Growth inhibition of human MCF7 cells after 48 hrs by sulforhodamine B assay; assay type: functional; conditions: MCF7, 48 h
[31] = system: RPMI-8226; experiment: Growth inhibition of human RPMI8226 cells after 48 hrs by sulforhodamine B assay; assay type: functional, cell-based; conditions: RPMI-8226, 48 h
[32] = system: SK-MEL-2; experiment: Growth inhibition of human SK-MEL-2 cells assessed as cell growth at 10 uM after 48 hrs by sulforhodamine B assay; assay type: functional; conditions: SK-MEL-2, 48 h, read-out: Activity
[33] = system: IGROV-1; experiment: Growth inhibition of human IGROV1 cells assessed as cell growth at 10 uM after 48 hrs by sulforhodamine B assay; assay type: functional; conditions: IGROV-1, 48 h, read-out: Activity
[34] = system: TK-10; experiment: Growth inhibition of human TK10 cells after 48 hrs by sulforhodamine B assay; assay type: functional; conditions: TK-10, 48 h
[35] = read-out: LC50 (the source's name)

COc1cc(-c2nn(-c3cccc(NC(=O)Nc4ccc(Cl)c(C(F)(F)F)c4)c3)cc2-c2ccncc2)ccc1Cl
growth at 10 µM [1]: 1.7%
growth at 10 µM [2]: 12.6%
growth at 10 µM [3]: 8.88%
GI50 [4]: 1140 nM
TGI [4]: 9230 nM
CC50 [4, 35]: > 32500 nM
GI50 [5]: 889 nM
IC50 [5]: 890 nM
TGI [5]: 2440 nM
CC50 [5, 35]: > 32500 nM
GI50 [6]: 1010 nM
LC50 (50% lethal concentration) [6]: 17500 nM
TGI [6]: 2580 nM
GI50 [7]: 1210 nM
TGI [7]: > 32500 nM
CC50 [7, 35]: > 32500 nM
growth at 10 µM [8]: -10.4%
growth at 10 µM [9]: 9.91%
growth at 10 µM [10]: 26.4%
GI50 [11]: 1170 nM
TGI [11]: > 32500 nM
CC50 [11, 35]: > 32500 nM
GI50 [12]: 1230 nM
TGI [12]: > 32500 nM
CC50 [12, 35]: > 32500 nM
GI50 [13]: 1280 nM
LC50 (lethal concentration, 50% net cell kill) [13]: > 32500 nM
TGI [13]: 10300 nM
GI50 [14]: 1820 nM
TGI [14]: > 32500 nM
CC50 [14, 35]: > 32500 nM
GI50 [15]: 1500 nM
LC50 [15]: > 32500 nM
TGI [15]: > 32500 nM
growth at 10 µM [16]: -8.04%
GI50 [17]: 833 nM
IC50 [17]: 830 nM
TGI [17]: 4420 nM
CC50 [17, 35]: > 32500 nM
GI50 [18]: 1500 nM
TGI [18]: 13900 nM
CC50 [18, 35]: > 32500 nM
growth at 10 µM [19]: 3.8%
GI50 [20]: 1170 nM
LC50 [20]: 17900 nM
TGI [20]: 4610 nM
growth at 10 µM [21]: -52.4%
GI50 [22]: 499 nM
IC50 [22]: 500 nM
LC50 [22]: > 32500 nM
TGI [22]: 1480 nM
GI50 [23]: 1020 nM
LC50 (concentration killing 50% of starting cells) [23]: > 32500 nM
TGI [23]: 16700 nM
growth at 10 µM [24]: -27.8%
GI50 [25]: 1060 nM
TGI [25]: 3920 nM
CC50 [25, 35]: 14900 nM
GI50 [26]: 1320 nM
TGI [26]: 18300 nM
CC50 [26, 35]: > 32500 nM
growth at 10 µM [27]: -14.9%
growth at 10 µM [28]: -37.5%
growth at 10 µM [29]: -7.22%
GI50 [30]: 919 nM
LC50 [30]: > 32500 nM
TGI [30]: > 32500 nM
GI50 [31]: 868 nM
IC50 [31]: 870 nM
TGI [31]: 3250 nM
CC50 [31, 35]: > 32500 nM
growth at 10 µM [32]: -57.8%
growth at 10 µM [33]: 25.6%
GI50 [34]: 1520 nM
TGI [34]: 13500 nM
CC50 [34, 35]: > 32500 nM
